According to publication PMC6401531 (ChemistryOpen, 2019):
Values joined by “and” are separate entries in the source; they are usually repeats but may differ in a detail not shown here. Equal values may be shown once. Read-outs that look alike come from different tables or passages of the source.

Experiments:
[1] = biological target: gpH1R (ileum) (Cavia porcellus, UniProt P31389); test: Organ bath study on isolated guinea pig ileum
[2] = biological target: T1, gpH2R (atrium) (Cavia porcellus, UniProt P47747); test: Organ bath study on isolated guinea pig right atrium; conditions: for Emax gpH2R: maximal response relative to maximal increase in heart rate induced by histamine (Emax=1.00)
T1 sequence (P47747 whole entry): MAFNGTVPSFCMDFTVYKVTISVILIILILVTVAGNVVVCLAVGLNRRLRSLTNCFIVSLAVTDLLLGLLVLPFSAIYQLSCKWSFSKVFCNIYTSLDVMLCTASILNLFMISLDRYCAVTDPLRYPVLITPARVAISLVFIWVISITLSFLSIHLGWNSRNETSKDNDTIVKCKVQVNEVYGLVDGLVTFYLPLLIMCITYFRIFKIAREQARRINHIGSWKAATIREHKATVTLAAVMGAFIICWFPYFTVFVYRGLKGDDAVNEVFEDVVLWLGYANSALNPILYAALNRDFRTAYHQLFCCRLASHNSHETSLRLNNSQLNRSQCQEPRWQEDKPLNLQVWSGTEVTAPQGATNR

[3] = biological target: T1, gpH2R (atrium); conditions: guinea-pig right atrium, cited from earlier work
[4] = biological target: hH2R (Homo sapiens, UniProt P25021+P63092); test: [35S]GTPγS binding assay, Sf9 membranes; assay type: biochemical
[5] = biological target: hH4R (Homo sapiens, UniProt Q9H3N8); test: [35S]GTPγS binding assay, Sf9 membranes; assay type: biochemical
[6] = biological target: hH3R (Homo sapiens, UniProt Q9Y5N1); test: [35S]GTPγS binding assay, Sf9 membranes; assay type: biochemical
Sequence of hH3R (Q9Y5N1 whole entry): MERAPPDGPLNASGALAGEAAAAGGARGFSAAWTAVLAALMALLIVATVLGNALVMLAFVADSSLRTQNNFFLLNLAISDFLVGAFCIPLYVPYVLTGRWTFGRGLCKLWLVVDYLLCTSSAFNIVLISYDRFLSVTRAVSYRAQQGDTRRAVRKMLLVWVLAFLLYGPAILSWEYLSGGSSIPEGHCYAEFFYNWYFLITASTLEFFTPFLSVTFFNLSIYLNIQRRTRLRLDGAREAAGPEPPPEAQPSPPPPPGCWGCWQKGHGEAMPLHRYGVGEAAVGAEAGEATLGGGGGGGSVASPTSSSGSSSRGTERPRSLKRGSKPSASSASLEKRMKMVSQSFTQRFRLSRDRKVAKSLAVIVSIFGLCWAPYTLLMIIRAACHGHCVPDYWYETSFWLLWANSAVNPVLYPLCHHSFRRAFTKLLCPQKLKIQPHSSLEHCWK

[7] = [35S]GTPγS binding, maximal response relative to histamine (Emax=1.00)

Sequence of gpH1R (ileum) (P31389 whole entry): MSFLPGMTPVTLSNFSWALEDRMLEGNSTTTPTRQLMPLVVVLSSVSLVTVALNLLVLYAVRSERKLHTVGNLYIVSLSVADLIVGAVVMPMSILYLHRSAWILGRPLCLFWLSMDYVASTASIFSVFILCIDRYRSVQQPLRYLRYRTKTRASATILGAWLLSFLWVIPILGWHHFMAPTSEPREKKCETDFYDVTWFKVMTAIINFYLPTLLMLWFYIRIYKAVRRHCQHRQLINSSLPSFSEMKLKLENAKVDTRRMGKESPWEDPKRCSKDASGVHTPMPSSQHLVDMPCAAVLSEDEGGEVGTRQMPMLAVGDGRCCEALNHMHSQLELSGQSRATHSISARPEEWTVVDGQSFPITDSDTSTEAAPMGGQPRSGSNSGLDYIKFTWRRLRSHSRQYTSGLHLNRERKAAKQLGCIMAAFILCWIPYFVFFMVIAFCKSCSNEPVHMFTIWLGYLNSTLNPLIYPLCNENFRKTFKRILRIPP

| Compound | Kb [1] | EC50 [2] | Emax gpH2R [2] | other results |
| --- | --- | --- | --- | --- |
| NC(=O)NCCCc1c[nH]cn1 [compound 145, 1‐[3‐(1H‐Imidazol‐4‐yl)propyl]urea] | > 31600 nM | 269000 nM | 0.58±0.02 |  |
| N=C(NCCCNC(N)=O)NCCCc1c[nH]cn1 [compound 132] | 9120 nM | 2450 nM | 0.89±0.03 |  |
| CSC(=N)NCCCc1c[nH]cn1 [compound 143, N‐[3‐(1H‐Imidazol‐4‐yl)propyl]‐S‐methylisothiourea] | 3890 nM | 7410 nM | 0.45 and 0.45±0.05 | rel. potency ([3]; relative to histamine): 0.1; maximum response [3]: 0.23 |
| NCCc1c[nH]cn1 [compound 1, histamine, reference compound] |  |  | 1.00 | Emax hH2R [4, 7]: 1.00; Emax hH4R [5, 7]: 1.00; Emax hH3R [6, 7]: 1.00 |
| O=C(NC(=S)NCCCc1c[nH]cn1)c1ccccc1 [compound 141, N‐{[3‐(1H‐Imidazol‐4‐yl)propyl]thiocarbamoyl}benzamide] |  | 18600 nM | 0.43±0.01 |  |
| Cc1nc(N)sc1CCCNC(=N)NCCCCCCCCCCCCN [compound 121] | 70.8 nM | 324 nM | 0.71±0.03 | Emax hH2R [4]: 0.22 and 0.22±0.01; Emax hH4R [5]: 0; Kb [5]: 178000 nM; Emax hH3R [6]: −0.69±0.03 |
| N=C(NCCCCCCCCCCN)NCCCc1c[nH]cn1 [compound 119] | 676 nM | 389 nM | 0.78±0.01 |  |
| N=C(NCCCCCCN)NCCCc1c[nH]cn1 [compound 117] | 6310 nM | 380 nM | 0.79±0.01 |  |
| N=C(NCCCN)NCCCc1c[nH]cn1 [compound 115, 1‐(3‐Aminopropyl)‐3‐[3‐(1H‐imidazol‐4‐yl)propyl]guanidine] | 16600 nM | 4680 nM | 0.88±0.05 |  |
| N=C(NCCCCCCNC(N)=O)NCCCc1c[nH]cn1 [compound 134] | 7410 nM | 676 nM | 0.96±0.03 |  |
| N=C(NCCCCCCCCN)NCCCc1c[nH]cn1 [compound 118] | 1290 nM | 309 nM | 0.75±0.10 |  |
| O=C(NCCCc1c[nH]cn1)NC(=O)c1ccccc1 [compound 144] | 9550 nM | 24000 nM | 0.15±0.03 |  |
| N=C(NCCCCCCCCCCNC(N)=O)NCCCc1c[nH]cn1 [compound 136] | 1000 nM | 295 nM | 0.96±0.01 | Emax hH2R [4]: 0.45 and 0.45±0.03; Emax hH3R [6]: −1.20±0.15 |
| NC(=S)NCCCc1c[nH]cn1 [compound 142] |  | 11000 nM | 0.27±0.02 |  |
| N=C(NCCCCNC(N)=O)NCCCc1c[nH]cn1 [compound 133] | 6030 nM | 288 nM | 1.03±0.03 |  |
| N=C(NCCCCCCCCCCCCN)NCCCc1cnc(N)s1 [compound 122] | 9.33 nM | 234 nM | 0.90±0.05 |  |
| N=C(NCCCCN)NCCCc1c[nH]cn1 [compound 116] | 3800 nM | 7410 nM | 0.68±0.02 |  |

Continued, in another order:

| Kb [1] | EC50 [2] | Compound | Emax gpH2R [2] | other results |
| --- | --- | --- | --- | --- |
| 50.1 nM | 38.9 nM | N=C(N)NCCCCCCCCNC(=N)NCCCc1cnc(N)s1 [compound 129] | 1.00±0.01 |  |
| 60.3 nM | 56.2 nM | N=C(N)NCCCCCCCCCCCCNC(=N)NCCCc1c[nH]cn1 [compound 127] | 0.77±0.07 | Emax hH2R [4]: 0.45±0.03; Emax hH4R [5]: 0; Kb [5]: 417000 nM; Emax hH3R [6]: 0; Kb [6]: 66.1 nM |
| 214 nM | 135 nM | Cc1nc(N)sc1CCCNC(=N)NCCCCCCCCNC(=N)N [compound 128] | 0.72±0.02 |  |
| 251 nM | 27.5 nM | N=C(N)NCCCCCCCCCCNC(=N)NCCCc1c[nH]cn1 [compound 126] | 0.80±0.02 |  |
| 8.71 nM | 117 nM | N=C(N)NCCCCCCCCCCCCNC(=N)NCCCc1cnc(N)s1 [compound 131] | 0.85±0.05 |  |
| 933 nM | 21.4 nM | N=C(N)NCCCCCCNC(=N)NCCCc1c[nH]cn1 [compound 124] | 0.94±0.02 |  |
| 174 nM | 95.5 nM | Cc1nc(N)sc1CCCNC(=N)NCCCCCCCCCCCCNC(=N)N [compound 130] | 0.90±0.04 | Emax hH2R [4]: 0.22 and 0.22±0.01; Emax hH3R [6]: −1.21±0.10 |
| 112 nM | 138 nM | N=C(NCCCCCCCCCCCCN)NCCCc1c[nH]cn1 [compound 120] | 1.00 and 1.00±0.06 | Emax hH2R [4]: 0.66±0.01; Emax hH4R [5]: 0; Kb [5]: 372000 nM; Emax hH3R [6]: 0; Kb [6]: 191 nM |
| 2630 nM | 50.1 nM | N=C(N)NCCCCNC(=N)NCCCc1c[nH]cn1 [compound 123] | 1.03 and 1.03±0.03 |  |
| 1620 nM | 20.4 nM | N=C(N)NCCCCCCCCNC(=N)NCCCc1c[nH]cn1 [compound 125] | 0.83 and 0.83±0.07 |  |
| 1410 nM | 182 nM | N=C(NCCCCCCCCNC(N)=O)NCCCc1c[nH]cn1 [compound 135] | 0.94±0.05 |  |
